Laboratory results as given in ChEMBL document CHEMBL5150061, “Design and Synthesis of Fibroblast Growth Factor Receptor (FGFR) and Histone Deacetylase (HDAC) Dual Inhibitors for the Treatment of Cancer” (J Med Chem, 2022).

How the values were obtained:
Histone deacetylase 1 = Histone deacetylase 1 (Homo sapiens, UniProt Q13547); experiment: Inhibition of HDAC1 (unknown origin)
[1] = molecular target: T1, Protein deacetylase HDAC6 (Homo sapiens, UniProt Q9UBN7); experiment: Inhibition of HDAC6 (unknown origin)
T1 sequence (Q9UBN7 whole entry): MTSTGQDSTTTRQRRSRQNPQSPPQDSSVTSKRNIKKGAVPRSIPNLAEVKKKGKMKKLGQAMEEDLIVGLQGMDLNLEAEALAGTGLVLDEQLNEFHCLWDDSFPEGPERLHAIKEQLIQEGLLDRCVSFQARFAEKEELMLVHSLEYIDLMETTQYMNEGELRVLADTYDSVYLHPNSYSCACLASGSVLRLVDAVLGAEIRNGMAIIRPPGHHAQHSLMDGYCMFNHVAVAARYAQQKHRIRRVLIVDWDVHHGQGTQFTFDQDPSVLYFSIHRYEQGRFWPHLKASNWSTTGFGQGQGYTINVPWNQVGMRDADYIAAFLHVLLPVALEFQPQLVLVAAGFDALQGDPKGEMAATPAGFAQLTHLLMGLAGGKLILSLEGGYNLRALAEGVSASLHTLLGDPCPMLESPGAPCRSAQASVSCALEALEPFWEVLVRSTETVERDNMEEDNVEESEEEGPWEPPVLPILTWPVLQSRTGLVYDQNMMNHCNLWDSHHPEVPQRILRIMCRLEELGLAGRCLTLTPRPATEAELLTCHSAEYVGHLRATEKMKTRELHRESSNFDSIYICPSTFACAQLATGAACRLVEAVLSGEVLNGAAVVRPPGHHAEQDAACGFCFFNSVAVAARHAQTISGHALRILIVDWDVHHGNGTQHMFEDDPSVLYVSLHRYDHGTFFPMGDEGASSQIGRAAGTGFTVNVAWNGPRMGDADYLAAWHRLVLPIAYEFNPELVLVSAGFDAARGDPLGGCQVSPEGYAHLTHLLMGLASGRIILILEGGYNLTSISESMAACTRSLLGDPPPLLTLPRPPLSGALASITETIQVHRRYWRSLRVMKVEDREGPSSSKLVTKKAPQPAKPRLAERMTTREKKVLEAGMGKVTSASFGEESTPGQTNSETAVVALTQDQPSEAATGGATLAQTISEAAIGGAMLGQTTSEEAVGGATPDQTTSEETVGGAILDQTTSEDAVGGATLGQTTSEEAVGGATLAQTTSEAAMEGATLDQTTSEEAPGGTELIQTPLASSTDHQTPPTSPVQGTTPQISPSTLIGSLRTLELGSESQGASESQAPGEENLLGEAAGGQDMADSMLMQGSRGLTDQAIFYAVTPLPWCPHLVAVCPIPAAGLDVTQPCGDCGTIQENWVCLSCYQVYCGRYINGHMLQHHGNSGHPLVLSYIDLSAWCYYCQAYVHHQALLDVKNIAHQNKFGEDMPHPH

K562 = experiment: cells; format: functional, cell-based; details: Homo sapiens, K562, 72 h
HCT-116 = experiment: cells; format: functional, cell-based; details: Homo sapiens, HCT-116, 72 h
cells = format: functional, cell-based; details: Homo sapiens, KATO III, 72 h
Jurkat = experiment: cells; format: functional, cell-based; details: Homo sapiens, 72 h
[2] = molecular target: Fibroblast growth factor receptor 1 (Homo sapiens, UniProt P11362); experiment: Inhibition of FGFR1 (unknown origin)
Chain of Fibroblast growth factor receptor 1 (P11362 whole entry): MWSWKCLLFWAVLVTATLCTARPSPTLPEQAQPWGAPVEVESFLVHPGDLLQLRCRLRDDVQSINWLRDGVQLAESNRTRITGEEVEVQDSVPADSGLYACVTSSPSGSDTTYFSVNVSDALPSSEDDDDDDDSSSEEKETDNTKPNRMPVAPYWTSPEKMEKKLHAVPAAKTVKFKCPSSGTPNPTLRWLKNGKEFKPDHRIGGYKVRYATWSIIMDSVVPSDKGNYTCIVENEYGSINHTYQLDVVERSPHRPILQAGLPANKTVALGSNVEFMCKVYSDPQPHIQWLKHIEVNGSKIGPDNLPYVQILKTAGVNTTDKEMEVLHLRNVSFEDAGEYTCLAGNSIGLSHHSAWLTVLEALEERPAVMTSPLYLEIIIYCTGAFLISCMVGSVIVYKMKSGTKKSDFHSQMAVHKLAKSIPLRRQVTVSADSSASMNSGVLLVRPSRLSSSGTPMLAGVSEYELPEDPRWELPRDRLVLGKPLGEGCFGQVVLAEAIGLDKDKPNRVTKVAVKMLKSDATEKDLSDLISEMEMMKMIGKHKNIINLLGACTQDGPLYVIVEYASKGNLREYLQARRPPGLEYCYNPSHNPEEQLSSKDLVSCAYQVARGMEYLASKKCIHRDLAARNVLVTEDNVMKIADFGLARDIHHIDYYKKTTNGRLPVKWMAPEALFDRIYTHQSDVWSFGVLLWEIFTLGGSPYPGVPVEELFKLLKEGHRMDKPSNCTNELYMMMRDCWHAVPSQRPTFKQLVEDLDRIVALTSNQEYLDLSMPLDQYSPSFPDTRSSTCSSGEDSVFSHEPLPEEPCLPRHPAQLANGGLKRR

SNU-16 = experiment: cells; format: functional, cell-based; details: Homo sapiens, SNU-16, 72 h
A2780 = experiment: cells; format: functional, cell-based; details: Homo sapiens, A2780, 72 h

Chain of Histone deacetylase 1 (Q13547 whole entry): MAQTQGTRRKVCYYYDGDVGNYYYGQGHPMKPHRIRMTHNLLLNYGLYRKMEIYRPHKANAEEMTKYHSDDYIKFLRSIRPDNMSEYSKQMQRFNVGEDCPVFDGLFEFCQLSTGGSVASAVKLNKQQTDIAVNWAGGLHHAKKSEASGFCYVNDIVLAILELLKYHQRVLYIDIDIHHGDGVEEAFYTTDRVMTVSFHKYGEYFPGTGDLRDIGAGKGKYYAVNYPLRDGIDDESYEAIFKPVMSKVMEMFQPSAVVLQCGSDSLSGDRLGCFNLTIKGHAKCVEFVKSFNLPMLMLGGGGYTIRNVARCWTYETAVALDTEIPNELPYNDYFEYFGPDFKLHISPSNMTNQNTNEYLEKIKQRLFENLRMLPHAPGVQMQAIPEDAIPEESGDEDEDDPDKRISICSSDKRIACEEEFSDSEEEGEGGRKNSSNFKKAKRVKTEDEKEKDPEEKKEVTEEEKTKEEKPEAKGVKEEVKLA

Compound	IC50 (Histone deacetylase 1) [nM]	other results
COc1cc(OC)cc(N(CCNC(C)C)c2ccc3ncc(-c4cnn(Cc5cccc(C(=O)NO)c5)c4)nc3c2)c1	> 1000	–
COc1cc(OC)cc(N(CCNC(C)C)c2ccc3ncc(-c4cnn(CCc5ccc(C(=O)NO)cc5)c4)nc3c2)c1	69	–
COc1cc(OC)cc(N(CCNC(C)C)c2ccc3ncc(-c4cnn(CCCCOc5ccc(C(=O)NO)cc5)c4)nc3c2)c1	160	–
COc1cc(OC)cc(N(CCNC(C)C)c2ccc3ncc(-c4cnn(CCCOc5ccc(C(=O)NO)cc5)c4)nc3c2)c1	126	–
COc1cc(OC)cc(N(CCNC(C)C)c2ccc3ncc(-c4cnn(Cc5ccc(CC(=O)NO)cc5)c4)nc3c2)c1	> 1000	–
COc1cc(OC)cc(N(CCNC(C)C)c2ccc3ncc(-c4cnn(Cc5ccc(/C=C/C(=O)NO)cc5)c4)nc3c2)c1	47	IC50 (K562): 460 nM; IC50 (HCT-116): 60 nM; IC50 (cells): 120 nM; IC50 (Jurkat): 6380 nM; IC50 [2]: 28 nM; IC50 (SNU-16): 50 nM; IC50 (A2780): 60 nM
COc1cc(OC)cc(N(CCNC(C)C)c2ccc3ncc(-c4cnn(CCC(=O)Nc5ccc(C(=O)NO)cc5)c4)nc3c2)c1	5.7	–
COc1cc(OC)cc(N(CC2CC2)c2ccc3ncc(-c4cnn(CCCC(=O)NO)c4)nc3c2)c1	> 1000	–

The remaining compounds from weak to strong by IC50 (Histone deacetylase 1), led by results:

IC50 (Histone deacetylase 1) [nM]	Compound	other results
653	COc1cc(OC)cc(N(CCNC(C)C)c2ccc3ncc(-c4cnn(CCCC(=O)NO)c4)nc3c2)c1	–
77	COc1cc(OC)cc(N(CC2CC2)c2ccc3ncc(-c4cnn(CCCCCC(=O)NO)c4)nc3c2)c1	–
16	COc1cc(OC)cc(N(CCNC(C)C)c2ccc3ncc(-c4cnn(CCCCCCCCC(=O)NO)c4)nc3c2)c1	–
2.6	COc1cc(OC)cc(N(CCCCCC(=O)NO)c2ccc3ncc(-c4cnn(C)c4)nc3c2)c1	IC50 [1]: 6.3 nM
